IC50 data for ten molecules are collected here from patent US12479827B2, “Heteroaromatic carboxamide derivatives as plasma kallikrein inhibitors” (Boehringer Ingelheim International GmbH, priority 2020, dated 2025).

The target in the assay is T1, Human PKK (Homo sapiens, UniProt P03952).
T1 construct: purchased Enzyme Research Laboratories
T1 sequence (P03952 20-390 limits assumed): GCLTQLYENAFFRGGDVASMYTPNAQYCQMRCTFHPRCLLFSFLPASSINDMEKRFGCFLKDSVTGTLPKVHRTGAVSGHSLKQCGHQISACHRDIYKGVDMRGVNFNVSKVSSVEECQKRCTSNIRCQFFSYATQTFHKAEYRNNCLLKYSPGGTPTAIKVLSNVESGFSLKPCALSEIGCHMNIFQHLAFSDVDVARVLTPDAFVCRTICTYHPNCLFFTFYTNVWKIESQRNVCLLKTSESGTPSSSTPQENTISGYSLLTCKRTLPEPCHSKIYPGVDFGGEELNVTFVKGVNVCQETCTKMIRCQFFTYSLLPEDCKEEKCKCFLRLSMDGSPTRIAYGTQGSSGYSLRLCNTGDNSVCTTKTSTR
T1 sequence (P03952 391-638 limits assumed): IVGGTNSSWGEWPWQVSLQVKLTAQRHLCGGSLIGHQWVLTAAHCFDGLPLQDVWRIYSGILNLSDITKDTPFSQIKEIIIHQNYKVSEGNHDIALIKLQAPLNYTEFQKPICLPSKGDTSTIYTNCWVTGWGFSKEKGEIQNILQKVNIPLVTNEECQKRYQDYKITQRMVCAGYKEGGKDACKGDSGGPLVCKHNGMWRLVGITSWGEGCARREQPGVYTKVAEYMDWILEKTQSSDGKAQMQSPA
The assay can be described thus: Inhibition of PKK using an endpoint assay (human PKK). Conditions: fluorogenic substrate H-Pro-Phe-Arg-AMC, 1 h room temperature, method names human or rat PKK, table does not say which. The assay is classed as biochemical. The method, then:
The ability of compounds of formula (I) to inhibit plasma kallikrein (PKK), Factor XIIa (FXIIa), Factor XIa (FXIa), Factor Xa (FXa), Factor IIa (alpha-thrombin; FIIa), plasmin, trypsin, tissue kallikrein 1 (TK1), Factor VIIa (FVIIa), or FVIIa complexed with Tissue Factor, phospholipids and CaCl2 (FVIIa/TF/PL/CaCl2) is determined using the following biochemical assays in assay buffer (100 mM Tris, 150 mM NaCL, adjusted to a pH of 7.8 with HCl, and containing 0.1% (w/v) BSA and 0.05% (v/v) Tween20) in the presence of 1% (v/v) DMSO:
Subsequently, PPACK II (Calbiochem) is added as a stop solution to achieve a final concentration of 1 μM and fluorescence is measured using an Envision Reader (PerkinElmer) with the wavelength excitation setting of 355 nm and the wavelength emission setting of 460 nm.
For `Cc1nc(N2C[C@@]3(C)C[C@@]3(C)C2)ncc1Cn1cc(C(=O)N[C@@H]2CCc3c2ncn3C)cn1` [Example 225, 1-({2-[(1R,5S)-1,5-Dimethyl-3-azabicyclo[3.1.0]hexan-3-yl]-4-methylpyrimidin-5-yl}methyl)-N-[(4R)-1-methyl-1H,4H,5H,6H-cyclopenta[d]imidazol-4-yl]-1H-pyrazole-4-carboxamide], the 50% inhibitory concentration (IC50) stood at 232 nM.
The same measure for `Cc1nc(N2CC3(CCC3)C2)ncc1Cn1cc(C(=O)N[C@@H]2CCc3c2ncn3C)cn1` [Example 226, 1-[(2-{2-Azaspiro[3.3]heptan-2-yl}-4-methylpyrimidin-5-yl)methyl]-N-[(4R)-1-methyl-1H,4H,5H,6H-cyclopenta[d]imidazol-4-yl]-1H-pyrazole-4-carboxamide]: 35.7 nM; for `Cc1nc(N2CCC3CC3C2)ncc1Cn1cc(C(=O)N[C@@H]2CCc3c2ncn3C)cn1` (stereo partly drawn) [Example 227, 1-[(2-{3-Azabicyclo[4.1.0]heptan-3-yl]-4-methylpyrimidin-5-yl)methyl]-N-[(4R)-1-methyl-1H,4H,5H,6H-cyclopenta[d]imidazol-4-yl]-1H-pyrazole-4-carboxamide]: 45.3 nM; for `Cc1nc(N2CC3C(C2)C3(C)C)ncc1Cn1cc(C(=O)N[C@@H]2CCc3c2ncn3C)cn1` (stereo partly drawn) [Example 228, 1-[(2-{6,6-Dimethyl-3-azabicyclo[3.1.0]hexan-3-yl}-4-methylpyrimidin-5-yl)methyl]-N-[(4R)-1-methyl-1H,4H,5H,6H-cyclopenta[d]imidazol-4-yl]-1H-pyrazole-4-carboxamide]: 126 nM.
The same measure for `Cc1nc(N2C[C@@H]3[C@@H](C)[C@@H]3C2)ncc1Cn1cc(C(=O)N[C@@H]2CCc3c2ncn3C)cn1` [Example 229, N-[(4R)-1-Methyl-1H,4H,5H,6H-cyclopenta[d]imidazol-4-yl]-1-({4-methyl-2-[(1R,5S,6R)-6-methyl-3-azabicyclo[3.1.0]hexan-3-yl]pyrimidin-5-yl}methyl)-1H-pyrazole-4-carboxamide]: 110 nM; for `Cc1nc(N2CCC3(CC3)C2)ncc1Cn1cc(C(=O)N[C@@H]2CCc3c2ncn3C)cn1` [Example 230, 1-[(2-{5-Azaspiro[2.4]heptan-5-yl}-4-methylpyrimidin-5-yl)methyl]-N-[(4R)-1-methyl-1H,4H,5H,6H-cyclopenta[d]imidazol-4-yl]-1H-pyrazole-4-carboxamide]: 53.7 nM; for `Cc1nc(N2CC3CC(C2)O3)ncc1Cn1cc(C(=O)N[C@@H]2CCc3c2ncn3C)cn1` [Example 231, N-[(4R)-1-Methyl-1H,4H,5H,6H-cyclopenta[d]imidazol-4-yl]-1-[(4-methyl-2-{6-oxa-3-azabicyclo[3.1.1]heptan-3-yl}pyrimidin-5-yl)methyl]-1H-pyrazole-4-carboxamide]: 223 nM.
`Cc1nc(N2CCCC3(CC3)C2)ncc1Cn1cc(C(=O)N[C@@H]2CCc3c2ncn3C)cn1` [Example 232, 1-[(2-{5-Azaspiro[2.5]octan-5-yl}-4-methylpyrimidin-5-yl)methyl]-N-[(4R)-1-methyl-1H,4H,5H,6H-cyclopenta[d]imidazol-4-yl]-1H-pyrazole-4-carboxamide] yielded an IC50 of 512 nM.
With `COC1C2CC1CN(c1ncc(Cn3cc(C(=O)N[C@@H]4CCc5c4ncn5C)cn3)c(C)n1)C2` (stereo partly drawn) [Example 233, 1-[(2-{6-Methoxy-3-azabicyclo[3.1.1]heptan-3-yl}-4-methylpyrimidin-5-yl)methyl]-N-[(4R)-1-methyl-1H,4H,5H,6H-cyclopenta[d]imidazol-4-yl]-1H-pyrazole-4-carboxamide] the figure was 81.4 nM.
With `CO[C@H]1[C@@H]2CC[C@H]1CN(c1ncc(Cn3cc(C(=O)N[C@@H]4CCc5c4ncn5C)cn3)c(C)n1)C2` [Example 234, 1-({2-[(1R,5S,8R)-8-Methoxy-3-azabicyclo[3.2.1]octan-3-yl]-4-methylpyrimidin-5-yl}methyl)-N-[(4R)-1-methyl-1H,4H,5H,6H-cyclopenta[d]imidazol-4-yl]-1H-pyrazole-4-carboxamide] the figure was 350 nM.
